These results are taken from ChEMBL document CHEMBL1201862, “PubChem BioAssay data set” (2004).

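Growth conditions: 96-well plates. Treatment: test compound, 48 hours, 5 concentrations. Analysis: linear interpolation between bracketing concentrations; unreached endpoints set to highest concentration. GI50 = concentration required for 50% inhibition of growth.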 Calls of active or inactive are those of the source. Rule as the data show it: active = GI50 up to about 1.1 µM and inactive = higher. Bounds are passed on as bounds.

Some test systems named below: A498; A549; ACHN; CAKI-1; CCRF-CEM; COLO 205; HCC 2998; HCT-15; IGROV-1; Malme-3M; NCI/ADR-RES; OVCAR-4; OVCAR-5; OVCAR-8; PC-3; RXF 393; SF-268; SR; TK-10; UACC-257.
Common to all, as to experiment: DTP human tumour cell line panel, 48 h

The GI50 is the concentration giving 50% growth inhibition. Take `O=C(Oc1ccccn1)c1cc2cc(CCl)ccc2oc1=O`: the GI50 with A498 was 70.6 µM (inactive); with A549, > 100 µM (inactive); in the assay with ACHN it was 43.8 µM (inactive); in the assay with CAKI-1 it was 28.7 µM (inactive); in the assay with CCRF-CEM, 30.4 µM (inactive); in the assay with COLO 205, 51.2 µM (inactive). The GI50 in the assay with HCC 2998 was 58.9 µM (inactive); in the assay with HCT-15 it was 39.4 µM; with IGROV-1, > 100 µM (inactive); in the assay on Malme-3M, 15.7 µM (inactive); with NCI/ADR-RES it was 27 µM (inactive); in the assay with OVCAR-4, 23 µM (inactive). Moreover, the GI50 is 37.5 µM (inactive) in the assay with OVCAR-5; 35.6 µM (inactive) in the assay with OVCAR-8; 18.5 µM (inactive) with PC-3; 19 µM (inactive) with RXF 393; 20.3 µM (inactive) in the assay with SF-268; 30.4 µM (inactive) in the assay on SR. Also, the GI50 in the assay on TK-10 was 72.1 µM (inactive); in the assay on UACC-257, 77.1 µM (inactive).
